Data published in ChEMBL document CHEMBL1201862, “PubChem BioAssay data set” (2004).
The source made the active and inactive calls.

Tests used:
[1] = target: T1, E3 ubiquitin-protein ligase XIAP (Homo sapiens, UniProt P98170); test: Counter Screen using XIAP-Bir3 for Chemical Antagonists of Bir1/2 domains of IAP-family anti-apoptotic proteins. [Related pubchem assays (depositor defined):AID1018, AID1449, AID1514, AID1638, AID1749, AID1750, AID488957, AID488963]
[2] = target: T1, E3 ubiquitin-protein ligase XIAP; test: XIAP antagonists, biochemical, IAP family, fluorescence polarization (AID 1018); type: functional
[3] = target: T2, Tyrosine-protein phosphatase non-receptor type 22 (Homo sapiens, UniProt Q9Y2R2); type: functional
T2 sequence (Q9Y2R2 whole entry): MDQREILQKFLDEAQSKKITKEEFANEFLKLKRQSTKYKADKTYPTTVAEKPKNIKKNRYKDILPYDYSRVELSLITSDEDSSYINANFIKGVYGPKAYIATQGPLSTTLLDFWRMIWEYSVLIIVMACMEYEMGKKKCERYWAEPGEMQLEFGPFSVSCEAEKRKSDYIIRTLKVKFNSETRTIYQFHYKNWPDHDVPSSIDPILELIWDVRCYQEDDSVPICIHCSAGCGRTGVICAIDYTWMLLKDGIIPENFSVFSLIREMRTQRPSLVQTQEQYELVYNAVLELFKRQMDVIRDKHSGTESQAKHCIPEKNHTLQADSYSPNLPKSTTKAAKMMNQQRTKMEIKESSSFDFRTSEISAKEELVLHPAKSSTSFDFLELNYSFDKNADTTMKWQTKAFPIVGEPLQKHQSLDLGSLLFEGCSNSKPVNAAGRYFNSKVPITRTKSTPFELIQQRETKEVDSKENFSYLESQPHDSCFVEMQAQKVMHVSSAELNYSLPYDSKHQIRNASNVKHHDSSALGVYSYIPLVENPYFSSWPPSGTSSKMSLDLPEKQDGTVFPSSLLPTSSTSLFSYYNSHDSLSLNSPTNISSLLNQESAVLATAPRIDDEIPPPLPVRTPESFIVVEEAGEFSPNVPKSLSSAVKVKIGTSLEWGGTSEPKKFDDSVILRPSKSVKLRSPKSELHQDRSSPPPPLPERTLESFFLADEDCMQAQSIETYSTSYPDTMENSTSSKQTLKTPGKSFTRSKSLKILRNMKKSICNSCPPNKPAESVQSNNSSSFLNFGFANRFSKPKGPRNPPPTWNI

[4] = target: T2, Tyrosine-protein phosphatase non-receptor type 22; type: functional; remark: listed apart in the source
[5] = target: T3, Tyrosine-protein phosphatase non-receptor type 7 (Homo sapiens, UniProt P35236); type: functional
T3 sequence (P35236 whole entry): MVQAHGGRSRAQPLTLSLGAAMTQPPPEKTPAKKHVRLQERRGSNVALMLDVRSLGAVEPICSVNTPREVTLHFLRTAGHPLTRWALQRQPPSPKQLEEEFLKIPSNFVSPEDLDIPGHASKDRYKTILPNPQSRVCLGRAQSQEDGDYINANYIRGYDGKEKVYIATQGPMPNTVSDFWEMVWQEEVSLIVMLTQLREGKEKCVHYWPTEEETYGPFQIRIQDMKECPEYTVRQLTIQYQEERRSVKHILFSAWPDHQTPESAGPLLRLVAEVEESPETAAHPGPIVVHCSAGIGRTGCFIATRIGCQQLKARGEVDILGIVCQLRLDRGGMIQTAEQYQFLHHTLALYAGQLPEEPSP

[6] = control 3'UTR Renilla luciferase suppression, dose response, counter-screen for Shn3 inhibitor project, cell-based, Clone20-Shn3RL, cherry-picked (AID 624133); type: functional
[7] = target: T4, Protein RecA (Mycobacterium tuberculosis, UniProt P9WHJ3); test: Fluorescence Cell-Free Homogeneous Dose Retest to Identify Inhibitors of RecA-Intein Splicing Activity. [Related pubchem assays (depositor defined):AID2097, AID2223, AID489010, AID492950]; type: functional
T4 sequence (P9WHJ3 whole entry): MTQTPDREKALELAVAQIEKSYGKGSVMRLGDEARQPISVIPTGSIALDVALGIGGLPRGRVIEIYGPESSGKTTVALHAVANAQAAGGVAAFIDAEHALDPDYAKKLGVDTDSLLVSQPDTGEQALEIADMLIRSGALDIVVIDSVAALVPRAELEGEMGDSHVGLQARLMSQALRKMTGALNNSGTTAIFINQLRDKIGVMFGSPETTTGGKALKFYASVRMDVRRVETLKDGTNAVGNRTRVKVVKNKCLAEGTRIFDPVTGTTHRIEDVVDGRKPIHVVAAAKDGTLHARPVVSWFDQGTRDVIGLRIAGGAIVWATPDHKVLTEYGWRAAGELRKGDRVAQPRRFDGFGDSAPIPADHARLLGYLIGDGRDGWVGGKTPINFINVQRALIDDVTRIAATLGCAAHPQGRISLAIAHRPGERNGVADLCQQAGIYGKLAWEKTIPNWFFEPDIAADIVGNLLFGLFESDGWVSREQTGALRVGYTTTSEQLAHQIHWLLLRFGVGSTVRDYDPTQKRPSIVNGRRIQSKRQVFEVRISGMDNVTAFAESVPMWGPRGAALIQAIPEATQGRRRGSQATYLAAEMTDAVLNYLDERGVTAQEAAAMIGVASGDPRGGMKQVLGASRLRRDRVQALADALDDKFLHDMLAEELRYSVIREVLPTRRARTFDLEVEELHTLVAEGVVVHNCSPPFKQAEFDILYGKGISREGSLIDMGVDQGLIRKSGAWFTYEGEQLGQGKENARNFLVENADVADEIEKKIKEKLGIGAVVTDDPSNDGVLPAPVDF

[8] = inhibitors of PGC1a acetylation in cells, dose response, cell-based, cherry-picked samples (AID 720514); type: functional;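 also: potency may reflect raised or lowered acetylation signal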
[9] = test system: INS1; test: beta cell apoptosis inhibitors, cytokine rescue, dose response, luminescence, retest (AID 449756); type: functional, cell-based; details: Rattus norvegicus;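 also: cell death triggered by IL-1 beta plus TNF-alpha plus IFN-gamma mixture; protective hits raise ATP signal compared with cytokine alone wells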
[10] = growth suppression of PTEN-null colon cells, dose response, cell-based, HCT116 PTEN knockout (AID 1047); type: functional;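 also: HCT116 colon tumor cells with PTEN knocked out; cells exposed to compound for 60 hours before readout; potency for loss of cell viability measured by luminescence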
[11] = growth suppression of beta-catenin-knockout colon cells, dose response, cell-based, HCT116, human colon tumor (AID 1045); type: functional;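 also: HCT116 colon tumor cells with beta catenin knocked out; cells exposed to compound for 60 hours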
[12] = HepG2 cell cytotoxicity, dose response, cytotoxicity control for Shn3 inhibitor project, CellTiter-Glo, cherry-picked (AID 624134); type: functional, cell-based
[13] = target: T5, Replicative DNA helicase DnaB (Mycobacterium tuberculosis, UniProt P9WMR3); test: DnaB intein splicing inhibitors, dose response, biochemical, cell-free fluorescence (AID 449749); type: functional
T5 sequence (P9WMR3 whole entry): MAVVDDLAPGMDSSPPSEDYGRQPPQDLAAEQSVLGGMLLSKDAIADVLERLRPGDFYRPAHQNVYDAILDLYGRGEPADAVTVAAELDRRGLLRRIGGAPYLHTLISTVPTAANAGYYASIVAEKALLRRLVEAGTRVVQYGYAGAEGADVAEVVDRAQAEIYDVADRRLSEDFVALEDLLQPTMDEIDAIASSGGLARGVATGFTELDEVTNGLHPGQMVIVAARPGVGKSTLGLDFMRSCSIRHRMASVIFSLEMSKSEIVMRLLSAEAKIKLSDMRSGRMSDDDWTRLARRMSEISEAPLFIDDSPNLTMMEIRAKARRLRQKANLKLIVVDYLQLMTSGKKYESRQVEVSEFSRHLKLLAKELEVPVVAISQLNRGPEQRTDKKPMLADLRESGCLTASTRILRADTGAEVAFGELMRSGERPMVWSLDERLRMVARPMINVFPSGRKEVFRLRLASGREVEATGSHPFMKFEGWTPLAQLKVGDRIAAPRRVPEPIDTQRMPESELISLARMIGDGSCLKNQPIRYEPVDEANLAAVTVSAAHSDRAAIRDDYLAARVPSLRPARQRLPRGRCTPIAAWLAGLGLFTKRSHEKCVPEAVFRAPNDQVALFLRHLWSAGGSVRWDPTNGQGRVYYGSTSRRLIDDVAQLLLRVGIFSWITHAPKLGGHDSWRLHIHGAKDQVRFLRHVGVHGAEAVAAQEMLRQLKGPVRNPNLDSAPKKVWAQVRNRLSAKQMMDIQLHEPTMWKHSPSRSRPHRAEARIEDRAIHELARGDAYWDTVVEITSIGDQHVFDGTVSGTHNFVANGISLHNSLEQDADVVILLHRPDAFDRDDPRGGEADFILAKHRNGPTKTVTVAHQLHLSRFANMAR

[14] = target: G-protein coupled receptor 55 (Homo sapiens, UniProt Q9Y2T6); test: GPR55 agonists via beta-arrestin recruitment, primary screen, imaging, U2OS cells, beta-arrestin-GFP redistribution (AID 1961); type: functional
G-protein coupled receptor 55, sequence (Q9Y2T6 whole entry, the tested form may be a part): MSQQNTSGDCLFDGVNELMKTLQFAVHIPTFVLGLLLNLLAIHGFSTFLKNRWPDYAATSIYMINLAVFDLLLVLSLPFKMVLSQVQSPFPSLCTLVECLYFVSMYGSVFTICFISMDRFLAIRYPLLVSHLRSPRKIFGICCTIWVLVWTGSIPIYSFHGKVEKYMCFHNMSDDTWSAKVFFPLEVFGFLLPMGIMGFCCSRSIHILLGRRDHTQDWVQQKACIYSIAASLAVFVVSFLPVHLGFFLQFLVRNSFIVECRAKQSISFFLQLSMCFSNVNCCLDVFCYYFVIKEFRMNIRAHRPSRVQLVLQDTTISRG

[15] = Fluorescence-based cell-based high throughput dose response assay for inhibitors of the interaction of nucleotide-binding oligomerization domain containing 2 (NOD2) and the receptor-interacting serine-threonine kinase 2 (RIPK2).; type: functional; details: Homo sapiens
[16] = Shn3 3'UTR reporter inhibitors, dose response, cell-based, Clone20 osteoblasts, firefly luciferase, cherry-picked (AID 624132); type: functional;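 also: firefly luciferase luminescence from reporter carrying the Shn3 3'UTR in osteoblasts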
[17] = cells; type: functional
[18] = cytotoxicity in HPDE-C7 cells, cell-based, fluorescence, HTS (AID 430); type: functional; details: Homo sapiens
[19] = cytotoxicity in KRAS-transformed pancreatic duct cells, primary screen, cell-based, fluorescence, HTS (AID 431); type: functional; details: Homo sapiens;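 also: cell line used: HPDE-C7K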
[20] = Vero E6 cell cytotoxicity, dose response, cytotoxicity control for non-replicating M. tuberculosis project, secondary assay (AID 492998); type: functional, VeroE6; details: Vero C1008
[21] = target: T6, Short transient receptor potential channel 4 (Mus musculus, UniProt Q9QUQ5); test: mouse TRPC4 channel activators, dose response, cell-based, HEK293 TRPC4/mu-opioid, Fluo-4 calcium (AID 434937); type: functional
T6 sequence (Q9QUQ5 whole entry): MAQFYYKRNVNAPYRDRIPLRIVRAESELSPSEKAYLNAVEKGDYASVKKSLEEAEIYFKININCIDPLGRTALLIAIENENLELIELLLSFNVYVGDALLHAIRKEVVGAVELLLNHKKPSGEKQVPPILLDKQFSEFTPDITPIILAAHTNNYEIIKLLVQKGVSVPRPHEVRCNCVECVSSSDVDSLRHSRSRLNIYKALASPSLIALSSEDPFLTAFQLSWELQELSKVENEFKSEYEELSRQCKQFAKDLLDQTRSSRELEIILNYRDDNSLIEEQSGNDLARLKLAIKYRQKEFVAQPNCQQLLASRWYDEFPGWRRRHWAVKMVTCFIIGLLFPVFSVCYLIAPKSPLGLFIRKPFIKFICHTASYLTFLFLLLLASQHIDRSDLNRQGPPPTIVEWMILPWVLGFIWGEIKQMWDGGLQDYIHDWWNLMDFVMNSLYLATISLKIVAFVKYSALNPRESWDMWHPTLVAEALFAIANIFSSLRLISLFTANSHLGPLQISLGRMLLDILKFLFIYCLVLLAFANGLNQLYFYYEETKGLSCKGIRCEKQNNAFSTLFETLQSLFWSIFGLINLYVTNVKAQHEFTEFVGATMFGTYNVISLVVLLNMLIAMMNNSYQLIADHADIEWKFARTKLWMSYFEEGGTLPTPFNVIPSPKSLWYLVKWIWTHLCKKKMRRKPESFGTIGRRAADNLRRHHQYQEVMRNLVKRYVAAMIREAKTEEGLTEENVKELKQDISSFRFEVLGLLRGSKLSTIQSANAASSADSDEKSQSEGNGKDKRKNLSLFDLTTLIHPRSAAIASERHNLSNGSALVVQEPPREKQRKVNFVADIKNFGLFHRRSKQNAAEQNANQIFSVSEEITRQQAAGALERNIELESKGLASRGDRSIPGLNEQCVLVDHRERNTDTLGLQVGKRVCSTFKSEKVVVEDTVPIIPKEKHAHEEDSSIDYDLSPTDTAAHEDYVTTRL

[22] = THP-1 cell cytotoxicity, dose response, cytotoxicity control for non-replicating M. tuberculosis project (AID 489025); type: functional

T1 sequence (P98170 whole entry): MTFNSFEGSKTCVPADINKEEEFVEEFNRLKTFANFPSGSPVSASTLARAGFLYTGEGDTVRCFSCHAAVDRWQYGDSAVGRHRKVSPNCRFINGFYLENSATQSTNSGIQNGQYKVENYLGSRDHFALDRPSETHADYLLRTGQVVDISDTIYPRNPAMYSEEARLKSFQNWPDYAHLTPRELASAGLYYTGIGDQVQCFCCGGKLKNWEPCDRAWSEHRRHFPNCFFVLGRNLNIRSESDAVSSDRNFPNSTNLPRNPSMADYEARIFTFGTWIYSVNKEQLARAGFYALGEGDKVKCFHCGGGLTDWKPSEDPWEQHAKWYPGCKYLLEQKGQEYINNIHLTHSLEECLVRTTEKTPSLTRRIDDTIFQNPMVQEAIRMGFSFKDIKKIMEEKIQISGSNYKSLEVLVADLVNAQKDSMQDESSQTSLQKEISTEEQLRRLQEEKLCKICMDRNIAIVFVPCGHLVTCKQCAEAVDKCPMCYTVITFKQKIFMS

With `CC(C)(C)NC(=O)C(c1ccncc1)N(C(=O)Cn1nnc(-c2ccc(F)cc2)n1)c1ccccc1F` (configuration not stated) the IC50 [1] was > 100 µM (inactive) and the IC50 [2] was > 100 µM (not active).

In the case of `Brc1ccc(C2Nc3cccc4cccc(c34)N2)o1`, the IC50 [3] is reported as > 79.4 µM (inactive), the IC50 [4] is reported as > 79.4 µM (inactive) and the IC50 [5] is reported as > 79.4 µM (inactive).

With `O=C(NCc1cccnc1)/C(=C/c1ccc(-c2ccc(Cl)cc2)o1)S(=O)(=O)c1ccccc1` the AC50 [6] was 11.8 µM (active), the EC50 [7] was 27.3 µM (active) and the AC50 [8] was 6.04 µM (active). The AC50 [9] was 6.51 µM (active), the EC50 [10] was 4.4 µM (active) and the EC50 [11] was 4.08 µM (active). For the same molecule, the AC50 [12] was 11.9 µM (active), the AC50 [13] was > 380 µM (inactive) and the EC50 [14] was > 32 µM (inactive). For the same molecule, the IC50 [15] was 6.4 µM (active) and the AC50 [16] was 5.35 µM (active).

In the case of `CCOc1ccc(C(=O)Nc2cccc(NC(=O)c3cccs3)c2)cc1[N+](=O)[O-]`, the IC50 [1] is reported as > 100 µM (inactive) and the IC50 [2] is reported as > 100 µM (not active).

For `Cn1c(SCC(=O)N2CCN(c3ccccc3)CC2)nnc1-c1cc2ccccc2o1`, the IC50 [3] was > 79.4 µM (inactive), the IC50 [4] was > 79.4 µM (inactive) and the IC50 [5] was > 79.4 µM (inactive).

With `CCn1cc(CNC(=O)c2cc([N+](=O)[O-])c(C)c([N+](=O)[O-])c2)cn1` the IC50 [3] was > 79.4 µM (inactive), the IC50 [4] was > 79.4 µM (inactive) and the IC50 [5] was > 79.4 µM (inactive).

In the case of `COC(=O)C1=C(C(=O)OC)N2C=CC=CC2(C)C(C(=O)OC)=C1C(=O)OC` (configuration not stated), the IC50 [1] is reported as > 100 µM (inactive) and the IC50 [2] is reported as > 100 µM (not active).

For `CN(C)C=C1C(=O)N(C2CCCCC2)C(=O)N(C2CCCCC2)C1=O`, the IC50 [17] was 11.2 µM (active), the EC50 [18] was 9.27 µM (active) and the EC50 [19] was 13.7 µM (active). The CC50 [20] was > 20 µM (active), the EC50 [21] was 9.44 µM (active) and the CC50 [22] was > 40 µM (active).
